Results reported in publication PMC11997881, “Comprehensive Characterization of Bruton’s Tyrosine Kinase Inhibitor Specificity, Potency, and Biological Effects: Insights into Covalent and Noncovalent Mechanistic Signatures” (ACS Pharmacology & Translational Science, 2025).
pIC50, pKd: −log10 of the molar value.

Experiments:
[1] = target: T1, MKK7 (Homo sapiens, UniProt O14733); assay: scanMAX binding POC, MKK7; settings: 1 μM
T1 sequence (O14733 1-419): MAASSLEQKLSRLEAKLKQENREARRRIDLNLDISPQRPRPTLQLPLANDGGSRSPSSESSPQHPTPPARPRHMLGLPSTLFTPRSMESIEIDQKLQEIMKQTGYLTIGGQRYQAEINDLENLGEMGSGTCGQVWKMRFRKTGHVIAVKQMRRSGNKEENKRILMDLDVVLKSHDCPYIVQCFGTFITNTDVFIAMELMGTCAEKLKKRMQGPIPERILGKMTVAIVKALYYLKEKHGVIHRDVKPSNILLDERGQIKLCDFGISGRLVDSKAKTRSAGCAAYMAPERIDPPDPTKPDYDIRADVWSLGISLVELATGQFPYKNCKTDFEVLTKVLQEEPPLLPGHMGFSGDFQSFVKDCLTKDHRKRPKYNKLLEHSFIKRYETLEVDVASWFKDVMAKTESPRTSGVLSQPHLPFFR

[2] = target: JNK1 (MAPK8) (Homo sapiens, UniProt P45983); assay: scanMAX binding POC, JNK1; settings: 1 μM
[3] = target: T2, TEC (Homo sapiens, UniProt P42680); assay: scanMAX binding POC, TEC; settings: 1 μM
T2 sequence (P42680 1-631): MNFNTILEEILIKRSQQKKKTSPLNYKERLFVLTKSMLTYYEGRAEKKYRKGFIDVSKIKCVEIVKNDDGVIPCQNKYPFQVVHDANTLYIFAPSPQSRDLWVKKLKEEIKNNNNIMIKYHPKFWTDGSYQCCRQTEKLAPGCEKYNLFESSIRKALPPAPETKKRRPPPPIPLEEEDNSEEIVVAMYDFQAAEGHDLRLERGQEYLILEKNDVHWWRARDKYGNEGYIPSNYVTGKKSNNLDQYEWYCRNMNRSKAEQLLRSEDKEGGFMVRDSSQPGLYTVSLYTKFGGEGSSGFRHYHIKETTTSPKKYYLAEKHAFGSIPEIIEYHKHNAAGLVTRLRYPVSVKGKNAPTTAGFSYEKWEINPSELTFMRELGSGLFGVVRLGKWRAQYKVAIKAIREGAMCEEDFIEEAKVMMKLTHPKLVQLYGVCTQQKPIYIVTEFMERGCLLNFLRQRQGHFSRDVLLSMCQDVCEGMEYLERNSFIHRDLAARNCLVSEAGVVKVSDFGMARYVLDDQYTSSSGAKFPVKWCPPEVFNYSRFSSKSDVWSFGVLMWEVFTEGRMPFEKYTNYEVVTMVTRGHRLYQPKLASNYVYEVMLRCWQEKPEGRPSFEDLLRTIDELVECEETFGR
Source text: (§1) Comprehensive Characterization of Bruton’s Tyrosine Kinase Inhibitor Specificity, Potency, and
(§2) Biological Effects: Insights into Covalent and Non-Covalent Mechanistic Signatures
(§3) Antonia C. Darragh1, Andrew M. Hanna1, Justin H. Lipner2, Alastair J. King2, Nicole B. Servant1, Mirza Jahic1*
(§4) *To whom correspondence should be addressed: Mirza Jahic, e-mail address: Mirza.Jahic@discovery.eurofinsus.com
(§5) Supporting Table S1. Comparison of BTK inhibitor specificity to TEC family members. TEC family members are
(§6) Burton’s tyrosine kinase (BTK), tyrosine kinase expressed in hepatocellular carcinoma (TEC), bone marrow-
(§7) expressed kinase (BMX/ETK), and T cell-expressed kinase (TXK/RLK), and interleukin-2-inducible T cell kinase
(§8) A zero POC signifies that the compound

[4] = target: T3, TXK (Homo sapiens, UniProt P42681); assay: scanMAX binding POC, TXK; settings: 1 μM
T3 sequence (P42681 1-527): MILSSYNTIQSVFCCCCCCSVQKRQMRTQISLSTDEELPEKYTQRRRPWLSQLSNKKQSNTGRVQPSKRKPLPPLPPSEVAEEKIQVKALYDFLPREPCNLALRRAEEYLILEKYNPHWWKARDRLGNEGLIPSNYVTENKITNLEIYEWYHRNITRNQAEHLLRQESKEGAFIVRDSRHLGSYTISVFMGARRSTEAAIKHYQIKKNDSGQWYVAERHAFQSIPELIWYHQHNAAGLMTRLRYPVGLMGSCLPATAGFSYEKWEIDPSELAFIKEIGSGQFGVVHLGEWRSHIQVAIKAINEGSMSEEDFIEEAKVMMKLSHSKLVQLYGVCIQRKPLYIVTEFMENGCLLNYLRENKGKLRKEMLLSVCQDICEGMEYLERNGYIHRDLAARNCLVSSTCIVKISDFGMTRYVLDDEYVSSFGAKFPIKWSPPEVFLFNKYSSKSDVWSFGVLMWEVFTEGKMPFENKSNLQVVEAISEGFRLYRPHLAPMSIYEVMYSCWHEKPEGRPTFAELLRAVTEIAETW
Source text: as §1, §2, §3, §4, §5, §6, §7, §8

[5] = target: ERBB2 (Homo sapiens, UniProt P04626); assay: scanMAX binding POC, ERBB2; settings: 1 μM
[6] = target: BLK (Homo sapiens, UniProt P51451); assay: scanMAX binding POC, BLK; settings: 1 μM
[7] = target: ERBB4 (Homo sapiens, UniProt Q15303); assay: scanMAX binding POC, ERBB4; settings: 1 μM
[8] = target: ERBB3 (Homo sapiens, UniProt P21860); assay: scanMAX binding POC, ERBB3; settings: 1 μM
[9] = target: JNK2 (MAPK9) (Homo sapiens, UniProt P45984); assay: scanMAX binding POC, JNK2; settings: 1 μM
[10] = target: EGFR (Homo sapiens, UniProt P00533); assay: scanMAX binding POC, EGFR; settings: 1 μM
[11] = test system: patients with CLL; parameters: method as in NCT02477696; settings: phase III, P = 0.02, ref NCT02477696; cited from earlier work
[12] = target: T4, ITK (Homo sapiens, UniProt Q08881); assay: scanMAX binding POC, ITK; settings: 1 μM
T4 sequence (Q08881 1-620): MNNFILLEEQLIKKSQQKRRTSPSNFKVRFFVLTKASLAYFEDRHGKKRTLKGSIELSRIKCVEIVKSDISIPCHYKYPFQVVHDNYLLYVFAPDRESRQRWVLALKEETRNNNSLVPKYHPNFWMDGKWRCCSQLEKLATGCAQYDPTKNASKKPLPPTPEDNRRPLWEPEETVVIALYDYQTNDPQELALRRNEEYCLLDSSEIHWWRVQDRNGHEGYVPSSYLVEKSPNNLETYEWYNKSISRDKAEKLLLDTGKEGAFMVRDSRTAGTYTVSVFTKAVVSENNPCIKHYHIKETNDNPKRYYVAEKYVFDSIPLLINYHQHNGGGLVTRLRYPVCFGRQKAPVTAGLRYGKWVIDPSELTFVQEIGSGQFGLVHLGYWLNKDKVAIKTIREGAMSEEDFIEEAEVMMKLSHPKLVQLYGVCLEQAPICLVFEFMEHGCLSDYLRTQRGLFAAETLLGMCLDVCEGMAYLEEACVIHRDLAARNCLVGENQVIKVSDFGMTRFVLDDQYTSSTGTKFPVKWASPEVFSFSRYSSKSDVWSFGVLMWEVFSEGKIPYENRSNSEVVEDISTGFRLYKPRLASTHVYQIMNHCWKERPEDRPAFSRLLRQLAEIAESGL
Source text: as §1, §2, §3, §4, §5, §6, §7, §8

[13] = target: T5, JAK3 (JH1 catalytic domain) (Homo sapiens, UniProt P52333); assay: scanMAX binding POC, JAK3; settings: 1 μM
T5 construct: The JAK3 POC is for its JH1 catalytic domain

[14] = target: BTK C481S; settings: average of literature values; read-out: average published Kd for BTK C481S; cited from earlier work
[15] = target: T6, BTK (Homo sapiens, UniProt Q06187); assay: scanMAX binding POC, BTK; settings: 1 μM; zero POC = competition comparable to positive control
T6 construct: host or cells: transiently transfected HEK293 cells
Source text: as §1, §2, §3, §4, §5, §6, §7, §8

[16] = test system: BTK; settings: cited from earlier work
[17] = target: JNK3 (MAPK10) (Homo sapiens, UniProt P53779); assay: scanMAX binding POC, JNK3; settings: 1 μM
[18] = test system: BTK C481S; settings: read-out: average published IC50 for BTK C481S; cited from earlier work
[19] = test system: R/R PCNSL lymphoma patients; settings: three-year follow-up; cited from earlier work
[20] = test system: relapsed/refractory (R/R) CLL and small lymphocytic lymphoma (SLL); parameters: method as in NCT03734016; settings: cited from earlier work

ERBB2, sequence (P04626 23-1255): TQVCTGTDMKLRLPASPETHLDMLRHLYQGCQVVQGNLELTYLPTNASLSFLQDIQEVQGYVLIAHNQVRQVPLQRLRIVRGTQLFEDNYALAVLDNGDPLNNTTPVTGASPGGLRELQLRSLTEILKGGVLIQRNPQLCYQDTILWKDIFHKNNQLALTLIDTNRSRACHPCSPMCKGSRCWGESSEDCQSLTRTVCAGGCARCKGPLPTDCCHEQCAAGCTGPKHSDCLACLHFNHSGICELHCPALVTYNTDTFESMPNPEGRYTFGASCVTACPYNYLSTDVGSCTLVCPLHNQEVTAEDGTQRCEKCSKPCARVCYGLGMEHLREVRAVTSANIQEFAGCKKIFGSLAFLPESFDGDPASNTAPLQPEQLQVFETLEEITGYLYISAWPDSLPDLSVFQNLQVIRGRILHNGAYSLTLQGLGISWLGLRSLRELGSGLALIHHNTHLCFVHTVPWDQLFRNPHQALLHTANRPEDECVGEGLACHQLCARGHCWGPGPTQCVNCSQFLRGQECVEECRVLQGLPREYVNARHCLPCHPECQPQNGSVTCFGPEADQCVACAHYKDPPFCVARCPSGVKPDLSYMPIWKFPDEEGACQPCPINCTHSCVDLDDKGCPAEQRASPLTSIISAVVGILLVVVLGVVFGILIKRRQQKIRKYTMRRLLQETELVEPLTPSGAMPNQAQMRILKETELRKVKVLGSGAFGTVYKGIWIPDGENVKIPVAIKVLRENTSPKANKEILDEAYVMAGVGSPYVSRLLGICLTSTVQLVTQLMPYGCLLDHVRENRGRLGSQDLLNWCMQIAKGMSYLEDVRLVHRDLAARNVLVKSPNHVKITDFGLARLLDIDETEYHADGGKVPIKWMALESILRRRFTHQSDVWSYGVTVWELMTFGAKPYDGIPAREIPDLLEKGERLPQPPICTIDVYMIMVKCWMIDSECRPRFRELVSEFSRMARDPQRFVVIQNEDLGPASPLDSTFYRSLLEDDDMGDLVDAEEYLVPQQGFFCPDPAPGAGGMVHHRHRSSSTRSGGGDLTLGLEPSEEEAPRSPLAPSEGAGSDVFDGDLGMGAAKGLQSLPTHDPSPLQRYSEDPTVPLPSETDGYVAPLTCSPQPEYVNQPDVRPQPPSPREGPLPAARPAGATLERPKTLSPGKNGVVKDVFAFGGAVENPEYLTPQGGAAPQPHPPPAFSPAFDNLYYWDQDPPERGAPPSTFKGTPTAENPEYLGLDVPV
BLK, sequence (P51451 whole entry): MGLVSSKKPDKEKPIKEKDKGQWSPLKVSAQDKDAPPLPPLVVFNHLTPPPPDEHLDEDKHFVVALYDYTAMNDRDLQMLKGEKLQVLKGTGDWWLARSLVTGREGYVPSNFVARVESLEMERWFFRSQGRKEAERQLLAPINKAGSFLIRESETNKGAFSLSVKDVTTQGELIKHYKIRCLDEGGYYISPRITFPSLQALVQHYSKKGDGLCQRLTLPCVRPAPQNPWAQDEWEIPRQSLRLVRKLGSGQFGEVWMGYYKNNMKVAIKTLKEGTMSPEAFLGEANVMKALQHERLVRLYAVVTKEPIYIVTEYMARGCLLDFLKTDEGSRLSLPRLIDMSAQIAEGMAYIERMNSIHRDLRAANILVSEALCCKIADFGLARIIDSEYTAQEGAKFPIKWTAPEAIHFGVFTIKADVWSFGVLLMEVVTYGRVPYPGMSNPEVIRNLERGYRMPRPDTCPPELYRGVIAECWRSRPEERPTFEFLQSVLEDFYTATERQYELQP
JNK2 (MAPK9), sequence (P45984 whole entry): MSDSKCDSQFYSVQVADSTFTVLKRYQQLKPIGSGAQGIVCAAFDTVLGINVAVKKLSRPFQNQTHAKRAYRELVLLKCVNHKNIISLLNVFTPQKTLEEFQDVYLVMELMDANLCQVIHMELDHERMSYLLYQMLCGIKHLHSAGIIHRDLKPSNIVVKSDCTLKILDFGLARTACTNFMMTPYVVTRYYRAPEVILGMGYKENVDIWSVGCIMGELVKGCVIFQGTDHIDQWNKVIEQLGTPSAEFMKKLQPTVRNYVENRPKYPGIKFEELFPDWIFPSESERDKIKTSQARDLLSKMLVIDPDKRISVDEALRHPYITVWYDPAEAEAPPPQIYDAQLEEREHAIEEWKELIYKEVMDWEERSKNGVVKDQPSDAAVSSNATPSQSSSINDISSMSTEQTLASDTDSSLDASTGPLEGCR
EGFR, sequence (P00533 25-1210): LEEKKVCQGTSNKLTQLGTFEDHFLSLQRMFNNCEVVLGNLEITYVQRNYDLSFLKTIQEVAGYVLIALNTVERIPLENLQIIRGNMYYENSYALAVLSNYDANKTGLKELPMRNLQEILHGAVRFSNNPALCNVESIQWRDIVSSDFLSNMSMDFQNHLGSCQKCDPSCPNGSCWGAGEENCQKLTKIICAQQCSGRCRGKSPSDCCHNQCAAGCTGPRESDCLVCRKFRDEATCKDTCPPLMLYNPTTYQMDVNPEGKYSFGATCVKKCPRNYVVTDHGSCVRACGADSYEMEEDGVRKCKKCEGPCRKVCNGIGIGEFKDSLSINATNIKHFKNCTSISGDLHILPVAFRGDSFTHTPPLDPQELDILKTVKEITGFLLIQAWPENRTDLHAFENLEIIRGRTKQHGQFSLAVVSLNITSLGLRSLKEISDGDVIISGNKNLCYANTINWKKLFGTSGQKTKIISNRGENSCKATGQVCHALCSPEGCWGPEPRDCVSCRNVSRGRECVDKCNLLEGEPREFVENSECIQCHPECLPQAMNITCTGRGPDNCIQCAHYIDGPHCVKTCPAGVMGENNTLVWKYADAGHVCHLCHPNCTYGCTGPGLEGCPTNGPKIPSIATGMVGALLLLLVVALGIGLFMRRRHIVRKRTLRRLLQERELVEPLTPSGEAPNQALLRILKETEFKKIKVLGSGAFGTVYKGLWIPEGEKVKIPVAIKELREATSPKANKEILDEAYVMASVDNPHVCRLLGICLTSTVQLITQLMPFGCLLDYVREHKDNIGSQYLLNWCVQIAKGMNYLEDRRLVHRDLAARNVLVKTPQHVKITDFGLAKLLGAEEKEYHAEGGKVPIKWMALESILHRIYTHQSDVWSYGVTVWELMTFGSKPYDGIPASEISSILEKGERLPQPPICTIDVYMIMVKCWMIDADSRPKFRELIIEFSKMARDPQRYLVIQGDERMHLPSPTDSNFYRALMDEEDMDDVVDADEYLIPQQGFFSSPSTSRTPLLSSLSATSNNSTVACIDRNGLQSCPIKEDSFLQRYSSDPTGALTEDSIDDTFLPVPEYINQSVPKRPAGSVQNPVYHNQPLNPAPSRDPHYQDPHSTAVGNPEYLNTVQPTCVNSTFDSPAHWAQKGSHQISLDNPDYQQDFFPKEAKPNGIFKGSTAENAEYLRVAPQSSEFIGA
ERBB3, sequence (P21860 20-1342): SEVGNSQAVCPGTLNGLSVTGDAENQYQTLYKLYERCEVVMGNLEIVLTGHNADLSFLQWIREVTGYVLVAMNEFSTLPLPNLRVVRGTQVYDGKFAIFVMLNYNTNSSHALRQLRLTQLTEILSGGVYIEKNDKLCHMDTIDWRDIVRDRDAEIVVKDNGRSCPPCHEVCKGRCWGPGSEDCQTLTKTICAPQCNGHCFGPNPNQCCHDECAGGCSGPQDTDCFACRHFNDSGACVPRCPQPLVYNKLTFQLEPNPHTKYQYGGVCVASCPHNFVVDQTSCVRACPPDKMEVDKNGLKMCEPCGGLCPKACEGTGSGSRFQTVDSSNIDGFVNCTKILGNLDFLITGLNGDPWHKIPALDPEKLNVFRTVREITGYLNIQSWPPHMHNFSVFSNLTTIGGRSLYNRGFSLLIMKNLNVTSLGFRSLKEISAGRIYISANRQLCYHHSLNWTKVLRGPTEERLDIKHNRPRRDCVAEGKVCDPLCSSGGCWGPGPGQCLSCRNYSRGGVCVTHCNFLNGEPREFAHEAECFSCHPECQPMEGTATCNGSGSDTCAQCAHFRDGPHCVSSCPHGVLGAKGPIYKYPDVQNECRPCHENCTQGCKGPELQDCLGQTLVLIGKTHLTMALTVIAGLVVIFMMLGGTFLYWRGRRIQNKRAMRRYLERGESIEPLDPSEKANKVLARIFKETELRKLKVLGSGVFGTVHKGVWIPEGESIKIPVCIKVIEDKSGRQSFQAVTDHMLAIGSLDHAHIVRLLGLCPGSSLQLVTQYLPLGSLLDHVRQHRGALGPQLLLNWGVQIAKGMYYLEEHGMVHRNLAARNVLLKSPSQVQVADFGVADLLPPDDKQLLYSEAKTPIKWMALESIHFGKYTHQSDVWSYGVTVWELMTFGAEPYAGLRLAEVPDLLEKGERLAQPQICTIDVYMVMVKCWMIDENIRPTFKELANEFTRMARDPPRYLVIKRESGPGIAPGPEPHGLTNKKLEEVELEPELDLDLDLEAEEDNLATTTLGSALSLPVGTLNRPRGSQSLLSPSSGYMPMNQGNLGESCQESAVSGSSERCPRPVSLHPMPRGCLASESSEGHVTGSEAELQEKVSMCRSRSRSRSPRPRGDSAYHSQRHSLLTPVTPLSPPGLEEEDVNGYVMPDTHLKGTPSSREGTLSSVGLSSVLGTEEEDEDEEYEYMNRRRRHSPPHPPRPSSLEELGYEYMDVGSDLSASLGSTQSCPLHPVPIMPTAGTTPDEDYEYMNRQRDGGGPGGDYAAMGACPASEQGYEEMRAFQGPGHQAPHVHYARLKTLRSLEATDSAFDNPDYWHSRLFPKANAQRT
JNK1 (MAPK8), sequence (P45983 whole entry): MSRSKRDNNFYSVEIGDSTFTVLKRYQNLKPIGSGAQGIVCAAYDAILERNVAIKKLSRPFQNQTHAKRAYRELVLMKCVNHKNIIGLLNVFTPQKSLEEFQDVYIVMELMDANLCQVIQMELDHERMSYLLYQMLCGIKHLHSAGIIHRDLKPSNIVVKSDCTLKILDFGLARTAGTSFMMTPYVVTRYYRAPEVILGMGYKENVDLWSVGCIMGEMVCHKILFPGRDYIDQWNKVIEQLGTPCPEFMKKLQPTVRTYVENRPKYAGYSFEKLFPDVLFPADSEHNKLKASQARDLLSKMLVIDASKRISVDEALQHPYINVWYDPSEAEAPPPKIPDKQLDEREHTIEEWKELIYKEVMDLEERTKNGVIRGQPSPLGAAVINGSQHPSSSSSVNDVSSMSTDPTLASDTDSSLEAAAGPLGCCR

Row | Structure (SMILES) | MKK7 binding POC [1] | JNK1 (MAPK8) POC [2] | TEC binding POC [3] | TXK binding POC [4] | ERBB2 binding POC [5] | BLK binding POC [6] | ERBB4 binding POC [7] | ERBB3 binding POC [8] | JNK2 (MAPK9) POC [9] | EGFR binding POC [10] | ITK binding POC [12] | JAK3 binding POC [13] | BTK binding POC [15] | pIC50 [16] | JNK3 (MAPK10) POC [17] | also measured
1 | CC#CC(=O)N1CCC[C@H]1c1nc(-c2ccc(C(=O)Nc3ccccn3)cc2)c2c(N)nccn12 [Acalabrutinib] | 75% of control | 93% of control | 14% of control | 47% of control | 4.7% of control | 57% of control | 6.9% of control | 64% of control | 58% of control | 61% of control | 100% of control | 80% of control | 0.2% of control | […] | 97% of control | adverse cardiovascular events [11]: 9.4%; pKd [14]: 6.45
2 | C=CC(=O)N1CCC[C@@H](n2nc(-c3ccc(Oc4ccccc4)cc3)c3c(N)ncnc32)C1 [Ibrutinib] | 0.15% of control | 78% of control | 5.9% of control | 0.5% of control | 0.1% of control | 0.25% of control | 0% of control | 0.15% of control | 78% of control | 0% of control | – | – | – | […] | – | pIC50 [18]: […]
3 | CC#CC(=O)N1CC[C@@H](n2c(=O)n(-c3ccc(Oc4ccccc4)cc3)c3c(N)ncnc32)C1 [Tirabrutinib] | 87% of control | 99% of control | 9.4% of control | 14% of control | 26% of control | 14% of control | 85% of control | 12% of control | 92% of control | 74% of control | – | – | 0.35% of control | […] | […] | overall response rate [19]: 63.6%
4 | C=CC(=O)N1CCC([C@@H]2CCNc3c(C(N)=O)c(-c4ccc(Oc5ccccc5)cc4)nn32)CC1 [Zanubrutinib] | 55% of control | 99% of control | 8.7% of control | 2.2% of control | 7.3% of control | 0.3% of control | 0.75% of control | 23% of control | 95% of control | 0% of control | 74% of control | 20% of control | – | […] | 93% of control | overall response rate (ORR, partial and complete responses) ([20]; after 15 months, P < 0.001, ref NCT03734016): 78.3%; cardiovascular adverse events ([20]; two-sided P = 0.001, ref NCT03734016): 2.5%
